System: recombinant NL4-3 virus (Renilla luciferase in nef, Gag P373S)
Experiment: HIV cell culture assay (luciferase activity in MT-2 cells infected with NLRluc recombinant virus)
Assay type: cell-based
Details: NL43, MT-2 cells infected 4-5 days with NLRluc recombinant virus, class symbol
How it was run: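 MT-2 cells in RPMI/10% FBS were infected with recombinant NL4-3 (NLRluc), produced by 293T transfection and titered in MT-2 by luciferase. Serial inhibitor dilutions were present throughout a 4–5 day infection. Antiviral activity was quantified as Renilla luciferase signal via a modified Dual Luciferase read.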

| Structure (SMILES) | EC50 [µM] |
| --- | --- |
| C=C(C)[C@@H]1CC[C@]2(CNCCN3CCN(C)CC3)CC[C@]3(C)[C@H](CC[C@@H]4[C@@]5(C)CC=C(c6ccc(C(=O)O)cc6)C(C)(C)[C@@H]5CC[C@]43C)[C@@H]12 [Example 11, 4-((1R,3aS,5aR,5bR,7aR,11aS,1bR,13aR,13bR)-5a,5b,8,8,11a-pentamethyl-3a-((2-(4-methylpiperazin-1-yl)ethylamino)methyl)-1-(prop-1-en-2-yl)-2,3,3a,4,5,5a,5b,6,7,7a,8,11,11a,11b,12,13,13a,13b-octadecahydro-1H-cyclopenta[a]chrysen-9-yl)benzoic acid] | < 0.1 |
| C=C(C)[C@@H]1CC[C@]2(CNC(=O)CN(C)C)CC[C@]3(C)[C@H](CC[C@@H]4[C@@]5(C)CC=C(c6ccc(C(=O)O)cc6)C(C)(C)[C@@H]5CC[C@]43C)[C@@H]12 [Example 148, 4-((1R,3aS,5aR,5bR,7aR,11aS,11bR,13aR,13bR)-3a-((2-(dimethylamino)acetamido)methyl)-5a,5b,8,8,11a-pentamethyl-1-(prop-1-en-2-yl)-2,3,3a,4,5,5a,5b,6,7,7a,8,11,11a,11b,12,13,13a,13b-octadecahydro-1H-cyclopenta[a]chrysen-9-yl)benzoic acid] | < 0.1 |
| C=C(C)[C@@H]1CC[C@]2(CNCCN(CC)CC)CC[C@]3(C)[C@H](CC[C@@H]4[C@@]5(C)CC=C(c6ccc(C(=O)O)cc6)C(C)(C)[C@@H]5CC[C@]43C)[C@@H]12 [Example 21, 4-((1R,3aS,5aR,5bR,7aR,11aS,11bR,13aR,13bR)-3a-((2-(diethylamino)ethylamino)methyl)-5a,5b,8,8,11a-pentamethyl-1-(prop-1-en-2-yl)-2,3,3a,4,5,5a,5b,6,7,7a,8,11,11a,11b,12,13,13a,13b-octadecahydro-1H-cyclopenta[a]chrysen-9-yl)benzoic acid] | < 0.1 |
| C=C(C)[C@@H]1CC[C@]2(CNCC(C)CN3CCCC3=O)CC[C@]3(C)[C@H](CC[C@@H]4[C@@]5(C)CC=C(c6ccc(C(=O)O)cc6)C(C)(C)[C@@H]5CC[C@]43C)[C@@H]12 (stereo partly drawn) [Example 79, 4-((1R,3aS,5aR,5bR,7aR,11aS,11bR,13aR,13bR)-5a,5b,8,8,11a-pentamethyl-3a-((2-methyl-3-(2-oxopyrrolidin-1-yl)propylamino)methyl)-1-(prop-1-en-2-yl)-2,3,3a,4,5,5a,5b,6,7,7a,8,11,11a,11b,12,13,13a,13b-octadecahydro-1H-cyclopenta[a]chrysen-9-yl)benzoic acid] | < 0.1 |
| C=C(C)[C@@H]1CC[C@]2(CNCCc3ccc(C(=O)OC)cc3)CC[C@]3(C)[C@H](CC[C@@H]4[C@@]5(C)CC=C(c6ccc(C(=O)O)cc6)C(C)(C)[C@@H]5CC[C@]43C)[C@@H]12 [Example 46, 4-((1R,3aS,5aR,5bR,7aR,11aS,11bR,13aR,13bR)-3a-((4-(methoxycarbonyl)phenethylamino)methyl)-5a,5b,8,8,11a-pentamethyl-1-(prop-1-en-2-yl)-2,3,3a,4,5,5a,5b,6,7,7a,8,11,11a,11b,12,13,13a,13b-octadecahydro-1H-cyclopenta[a]chrysen-9-yl)benzoic acid] | < 0.1 |
| C=C(C)[C@@H]1CC[C@]2(CNCCC(=O)N3CCSCC3)CC[C@]3(C)[C@H](CC[C@@H]4[C@@]5(C)CC=C(c6ccc(C(=O)O)cc6)C(C)(C)[C@@H]5CC[C@]43C)[C@@H]12 [Example 122, 4-((1R,3aS,5aR,5bR,7aR,11aS,11bR,13aR,13bR)-5a,5b,8,8,11a-pentamethyl-3a-((3-oxo-3-thiomorpholinopropylamino)methyl)-1-(prop-1-en-2-yl)-2,3,3a,4,5,5a,5b,6,7,7a,8,11,11a,11b,12,13,13a,13b-octadecahydro-1H-cyclopenta[a]chrysen-9-yl)benzoic acid] | < 0.1 |
| C=C(C)[C@@H]1CC[C@]2(CNCCCN3C(=O)CCC3=O)CC[C@]3(C)[C@H](CC[C@@H]4[C@@]5(C)CC=C(c6ccc(C(=O)O)cc6)C(C)(C)[C@@H]5CC[C@]43C)[C@@H]12 [Example 71, 4-((1R,3aS,5aR,5bR,7aR,11aS,11bR,13aR,13bR)-3a-((3-(2,5-dioxopyrrolidin-1-yl)propylamino)methyl)-5a,5b,8,8,11a-pentamethyl-1-(prop-1-en-2-yl)-2,3,3a,4,5,5a,5b,6,7,7a,8,11,11a,11b,12,13,13a,13b-octadecahydro-1H-cyclopenta[a]chrysen-9-yl)benzoic acid] | < 0.1 |
| C=C(C)[C@@H]1CC[C@]2(CNS(=O)(=O)c3ccc(C(=O)O)cc3)CC[C@]3(C)[C@H](CC[C@@H]4[C@@]5(C)CC=C(c6ccc(C(=O)O)cc6)C(C)(C)[C@@H]5CC[C@]43C)[C@@H]12 [Example 167, 4-(N—(((1R,3aS,5aR,5bR,7aR,11aS,11bR,13aR,13bR)-9-(4-carboxyphenyl)-5a,5b,8,8,11a-pentamethyl-1-(prop-1-en-2-yl)-2,3,3a,4,5,5a,5b,6,7,7a,8,11,11a,11b,12,13,13a,13b-octadecahydro-1H-cyclopenta[a]chrysen-3a-yl)methyl)sulfamoyl)benzoic acid] | < 0.1 |
| C=C(C)[C@@H]1CC[C@]2(CNC(=O)CCN3CCNCC3)CC[C@]3(C)[C@H](CC[C@@H]4[C@@]5(C)CC=C(c6ccc(C(=O)O)cc6)C(C)(C)[C@@H]5CC[C@]43C)[C@@H]12 [Example 141, 4-((1R,3aS,5aR,5bR,7aR,11aS,11bR,13aR,13bR)-5a,5b,8,8,11a-pentamethyl-3a-((3-(piperazin-1-yl)propanamido)methyl)-1-(prop-1-en-2-yl)-2,3,3a,4,5,5a,5b,6,7,7a,8,11,11a,11b,12,13,13a,13b-octadecahydro-1H-cyclopenta[a]chrysen-9-yl)benzoic acid] | < 0.1 |
| C=C(C)[C@@H]1CC[C@]2(CNCCC(=O)N3CCS(=O)(=O)C3)CC[C@]3(C)[C@H](CC[C@@H]4[C@@]5(C)CC=C(c6ccc(C(=O)O)cc6)C(C)(C)[C@@H]5CC[C@]43C)[C@@H]12 [Example 120, 4-((1R,3aS,5aR,5bR,7aR,11aS,11bR,13aR,13bR)-3a-(((3-(1,1-dioxido-1,3-thiazolidin-3-yl)-3-oxopropyl)amino)methyl)-1-isopropenyl-5a,5b,8,8,11a-pentamethyl-2,3,3a,4,5,5a,5b,6,7,7a,8,11,11a,11b,12,13,13a,13b-octadecahydro-1H-cyclopenta[a]chrysen-9-yl)benzoic acid] | < 0.1 |
| C=C(C)[C@@H]1CC[C@]2(CNCCC(=O)N3CCCC3)CC[C@]3(C)[C@H](CC[C@@H]4[C@@]5(C)CC=C(c6ccc(C(=O)O)c(F)c6)C(C)(C)[C@@H]5CC[C@]43C)[C@@H]12 [Example 90, 2-fluoro-4-((1R,3aS,5aR,5bR,7aR,11aS,11bR,13aR,13bR)-5a,5b,8,8,11a-pentamethyl-3a-((3-oxo-3-(pyrrolidin-1-yl)propylamino)methyl)-1-(prop-1-en-2-yl)-2,3,3a,4,5,5a,5b,6,7,7a,8,11,11a,11b,12,13,13a,13b-octadecahydro-1H-cyclopenta[a]chrysen-9-yl)benzoic acid] | < 0.1 |

From patent publication US8748415B2 (priority 2011, dated 2014)
